Data set [1] deals with Bacillus anthracis. Conditions: in vivo.
Data set [2] deals with Bacillus anthracis. The note with it: in vivo, 24 h.
Data set [3] concerns Bacillus anthracis. Conditions: in vivo, 24 h. This is another data set of the same source.
Data set [4] has as its system Bacillus anthracis. Nature of the data set: Antimicrobial activity against Bacillus anthracis infected in in vitro hollow fiber PK/PD model assessed as cell killing at 800 mg administered as 2 divided doses every 12 hrs. The format is functional, organism-based.
The subject of data set [5] is Bacillus anthracis. Nature of the data set: Antimicrobial activity against Bacillus anthracis infected in in vitro hollow fiber PK/PD model assessed as cell killing at 400 mg administered once every 24 hrs. The class given is functional, organism-based.
Data set [6] relates to Bacillus anthracis. Nature of the data set: Antimicrobial activity against Bacillus anthracis infected in in vitro hollow fiber PK/PD model assessed as cell killing at 800 mg administered once every 24 hrs. The format is functional, organism-based.
Data set [7] concerns Bacillus anthracis. Conditions: in vivo, 24 h. The source holds these as a separate data set.
The subject of data set [8] is Bacillus anthracis. Nature of the data set: Antimicrobial activity against Bacillus anthracis infected in in vitro hollow fiber PK/PD model assessed as bacterial regrowth at 300 mg administered once every 24 hrs. The class given is functional, organism-based.
The test system of data set [9] is Bacillus anthracis. The note with it: in vivo, 24 h. This is another data set of the same source.
For data set [10], the system named is Bacillus anthracis. Nature of the data set: Antimicrobial activity against Bacillus anthracis infected in in vitro hollow fiber PK/PD model assessed as cell killing at 200 mg administered once every 24 hrs. The class given is functional, organism-based.
In data set [11] the test system is Bacillus anthracis. The note with it: in vivo, 24 h. The source holds these as a separate data set.
Data set [12] relates to Bacillus anthracis. Conditions: in vivo, 24 h. The source holds these as a separate data set.
In data set [13] the test system is Bacillus anthracis. The note with it: in vivo. This is another data set of the same source.
For data set [14], the system named is Bacillus anthracis. Nature of the data set: Antimicrobial activity against Bacillus anthracis infected in in vitro hollow fiber PK/PD model assessed as prevention of bacterial regrowth at 800 mg administered once every 24 hrs. The format is functional, organism-based.
Data set [15] deals with Bacillus anthracis. The note with it: in vivo. The source holds these as a separate data set.
Data set [16] has as its system Bacillus anthracis. The note with it: in vivo, 24 h. This is another data set of the same source.
Data set [17] has as its system Bacillus anthracis. Nature of the data set: Antimicrobial activity against Bacillus anthracis infected in in vitro hollow fiber PK/PD model assessed as bacterial killing at 600 mg administered once every 24 hrs for 15 days. The class given is functional, organism-based.
Data set [18] concerns Bacillus anthracis. The note with it: in vivo, 24 h. This is another data set of the same source.
The test system of data set [19] is Bacillus anthracis. Nature of the data set: Antimicrobial activity against Bacillus anthracis infected in in vitro hollow fiber PK/PD model assessed as cell killing at 800 mg administered as 4 divided doses every 6 hrs. The class given is functional, organism-based.
Data set [20] deals with Bacillus anthracis. The note with it: in vivo. This is another data set of the same source.
The test system of data set [21] is Bacillus anthracis. Nature of the data set: Antimicrobial activity against Bacillus anthracis infected in in vitro hollow fiber PK/PD model assessed as bacterial regrowth at 200 mg administered once every 24 hrs. The format is functional, organism-based.
The test system of data set [22] is Bacillus anthracis. Nature of the data set: Antimicrobial activity against Bacillus anthracis infected in in vitro hollow fiber PK/PD model assessed as bacterial regrowth at 100 mg administered once every 24 hrs. The class given is functional, organism-based.
Data set [23] has as its system Bacillus anthracis. Conditions: in vivo. This is another data set of the same source.
Data set [24] has as its system Bacillus anthracis. Conditions: in vivo. The source holds these as a separate data set.
The subject of data set [25] is Bacillus anthracis. The note with it: in vivo, 24 h. The source holds these as a separate data set.
Data set [26] relates to Bacillus anthracis. Conditions: in vivo. This is another data set of the same source.
For data set [27], the system named is Bacillus anthracis. The note with it: in vivo, 24 h. This is another data set of the same source.
The subject of data set [28] is Bacillus anthracis. Nature of the data set: Antimicrobial activity against Bacillus anthracis infected in in vitro hollow fiber PK/PD model assessed as bacterial regrowth at 600 mg administered once every 24 hrs. The format is functional, organism-based.
Data set [29] deals with Bacillus anthracis. Conditions: in vivo. This is another data set of the same source.
Data set [30] concerns Bacillus anthracis. Nature of the data set: Antimicrobial activity against Bacillus anthracis infected in in vitro hollow fiber PK/PD model assessed as prevention of bacterial regrowth at 700 mg administered once every 24 hrs. The format is functional, organism-based.
In data set [31] the test system is Bacillus anthracis. Nature of the data set: Antimicrobial activity against Bacillus anthracis infected in in vitro hollow fiber PK/PD model assessed as cell killing at 300 mg administered once every 24 hrs. The format is functional, organism-based.
For data set [32], the system named is Bacillus anthracis. Conditions: in vivo, 24 h. This is another data set of the same source.
For data set [33], the system named is Bacillus anthracis. Conditions: in vivo. This is another data set of the same source.
Data set [34] deals with Bacillus anthracis. Nature of the data set: Antimicrobial activity against wild-type Bacillus anthracis. The class given is functional.
The subject of data set [35] is Bacillus anthracis. Nature of the data set: Antimicrobial activity against Bacillus anthracis infected in in vitro hollow fiber PK/PD model assessed as bacterial regrowth at 400 mg administered once every 24 hrs. The class given is functional, organism-based.
In data set [36] the test system is Bacillus anthracis. Nature of the data set: Antimicrobial activity against Bacillus anthracis infected in in vitro hollow fiber PK/PD model assessed as bacterial killing at 800 mg administered once every 24 hrs. The class given is functional, organism-based.
The test system of data set [37] is Bacillus anthracis. Nature of the data set: Antimicrobial activity against Bacillus anthracis infected in in vitro hollow fiber PK/PD model assessed as reduction in bacterial burden at 700 mg administered once every 24 hrs. The format is functional, organism-based.
In data set [38] the test system is Bacillus anthracis. The note with it: in vivo. This is another data set of the same source.
Data set [39] has as its system Bacillus anthracis. The note with it: in vivo, 24 h. This is another data set of the same source.
The subject of data set [40] is Bacillus anthracis. Nature of the data set: Antimicrobial activity against Bacillus anthracis infected in in vitro hollow fiber PK/PD model assessed as bacterial killing at 500 mg administered once every 24 hrs for 15 days. The class given is functional, organism-based.
For data set [41], the system named is Bacillus anthracis. The note with it: in vivo, 24 h. This is another data set of the same source.
Data set [42] concerns Bacillus anthracis. Nature of the data set: Antimicrobial activity against Bacillus anthracis infected in in vitro hollow fiber PK/PD model assessed as bacterial regrowth at 500 mg administered once every 24 hrs. The class given is functional, organism-based.

≈ marks a conversion by molar mass, not a printed value. Calls of active or inactive are those of the source.

The results in this text go back to ChEMBL document CHEMBL1629546 (Antimicrob Agents Chemother, 2008).

`O=C(O)c1cn(C2CC2)c2cc(N3CCNCC3)c(F)cc2c1=O` [CIPROFLOXACIN] registered a fAUC in the data set with Bacillus anthracis [1] of 22356 ng·h/mL.
For the compound `CC(=O)NC[C@H]1CN(c2ccc(N3CCOCC3)c(F)c2)C(=O)O1` [LINEZOLID], the fAUC in the data set on Bacillus anthracis [2] was 45553 ng·h/mL; in the data set with Bacillus anthracis [3], 33746 ng·h/mL; in the data set on Bacillus anthracis [7] it was 71422 ng·h/mL; in the data set on Bacillus anthracis [9], 11249 ng·h/mL; in the data set with Bacillus anthracis [1] it was 90081 ng·h/mL; with Bacillus anthracis [11] it was 91106 ng·h/mL. Also, the fAUC in the data set on Bacillus anthracis [12] came out at 91106 ng·h/mL; with Bacillus anthracis [13] it was 71540 ng·h/mL; in the data set on Bacillus anthracis [15], 91216 ng·h/mL; in the data set with Bacillus anthracis [16], 90106 ng·h/mL; with Bacillus anthracis [18] it was 78508 ng·h/mL; in the data set on Bacillus anthracis [20] it was 56245 ng·h/mL. Further, the fAUC was found to be 74371 ng·h/mL with Bacillus anthracis [23]; 71300 ng·h/mL in the data set on Bacillus anthracis [24]; 22498 ng·h/mL in the data set with Bacillus anthracis [25]; 91284 ng·h/mL in the data set with Bacillus anthracis [26]; 56283 ng·h/mL in the data set on Bacillus anthracis [27]; 115702 ng·h/mL in the data set with Bacillus anthracis [29]. The fAUC in the data set with Bacillus anthracis [32] was determined as 71422 ng·h/mL; in the data set with Bacillus anthracis [33], 36244 ng·h/mL; with Bacillus anthracis [38], 56258 ng·h/mL; in the data set on Bacillus anthracis [39], 78508 ng·h/mL; in the data set on Bacillus anthracis [41] it was 56283 ng·h/mL. In addition, the outcome in the data set on Bacillus anthracis [4], with Bacillus anthracis [5], in the data set with Bacillus anthracis [6], with Bacillus anthracis [8], with Bacillus anthracis [10] and in the data set with Bacillus anthracis [14] was Active. The result with Bacillus anthracis [17], in the data set with Bacillus anthracis [19], in the data set on Bacillus anthracis [21], in the data set with Bacillus anthracis [22], with Bacillus anthracis [28] and in the data set with Bacillus anthracis [30] was Active. Further, the outcome in the data set with Bacillus anthracis [31], in the data set on Bacillus anthracis [35], in the data set on Bacillus anthracis [36], in the data set on Bacillus anthracis [37], with Bacillus anthracis [40] and in the data set with Bacillus anthracis [42] was Active. Also, the MIC (commonly the smallest concentration in the dilution series that meets the test's criterion for growth inhibition) against Bacillus anthracis [34] was determined as 3 µg/mL (≈ 8.89 µM).
